Results from patent US9518066B2, “GAK modulators” (KATHOLIEKE UNIVERSITEIT LEUVEN, priority 2013, dated 2016).

Biological target: T1, GAK kinase (Homo sapiens, UniProt O14976)
T1 construct: made in house; host or cells: E. coli host derived from the BL21 strain, infected with T7 phage
T1 sequence (O14976 1-1311): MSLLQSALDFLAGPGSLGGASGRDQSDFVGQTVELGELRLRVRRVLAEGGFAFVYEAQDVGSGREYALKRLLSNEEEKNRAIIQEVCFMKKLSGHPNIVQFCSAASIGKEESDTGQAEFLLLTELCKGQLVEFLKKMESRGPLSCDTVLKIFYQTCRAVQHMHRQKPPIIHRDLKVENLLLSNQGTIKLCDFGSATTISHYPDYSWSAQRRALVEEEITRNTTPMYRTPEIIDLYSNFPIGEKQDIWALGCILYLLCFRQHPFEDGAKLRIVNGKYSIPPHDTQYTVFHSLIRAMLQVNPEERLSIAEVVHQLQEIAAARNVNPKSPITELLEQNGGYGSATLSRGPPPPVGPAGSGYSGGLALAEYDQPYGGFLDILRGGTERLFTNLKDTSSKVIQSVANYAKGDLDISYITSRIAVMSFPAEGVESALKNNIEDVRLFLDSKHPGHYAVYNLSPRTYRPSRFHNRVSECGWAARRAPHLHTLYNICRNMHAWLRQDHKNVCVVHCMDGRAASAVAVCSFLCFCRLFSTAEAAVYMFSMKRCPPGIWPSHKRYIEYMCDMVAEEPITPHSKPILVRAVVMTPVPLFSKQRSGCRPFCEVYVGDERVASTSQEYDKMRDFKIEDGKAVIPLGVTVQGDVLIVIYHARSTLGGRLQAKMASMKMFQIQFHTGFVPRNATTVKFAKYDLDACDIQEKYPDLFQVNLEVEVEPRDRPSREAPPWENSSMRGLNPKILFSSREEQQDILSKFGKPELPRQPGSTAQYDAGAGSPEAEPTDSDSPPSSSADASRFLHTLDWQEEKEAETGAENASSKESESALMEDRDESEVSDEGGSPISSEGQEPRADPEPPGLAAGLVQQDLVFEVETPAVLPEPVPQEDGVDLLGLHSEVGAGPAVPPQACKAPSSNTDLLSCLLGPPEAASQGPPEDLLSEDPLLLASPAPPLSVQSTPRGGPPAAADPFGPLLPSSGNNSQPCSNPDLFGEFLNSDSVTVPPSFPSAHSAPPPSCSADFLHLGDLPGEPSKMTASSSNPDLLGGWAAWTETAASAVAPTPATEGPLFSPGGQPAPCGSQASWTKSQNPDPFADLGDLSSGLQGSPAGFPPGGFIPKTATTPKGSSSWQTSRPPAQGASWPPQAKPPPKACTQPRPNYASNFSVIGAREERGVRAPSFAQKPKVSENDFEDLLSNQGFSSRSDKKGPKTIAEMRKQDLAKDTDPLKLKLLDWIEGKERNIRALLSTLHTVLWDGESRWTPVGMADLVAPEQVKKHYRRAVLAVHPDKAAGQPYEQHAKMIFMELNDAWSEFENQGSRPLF
Assay: GAK binding assay (T7 phage kinase competition binding)
Settings: for Kd: determined for selected compounds with % control <5 at 10 μM; for remaining binding at 10 µM: single concentration of 10 μM, lower numbers indicate stronger hits, read-out: % Ctrl
Description: The compounds of the invention were assayed for their GAK kinase binding affinity using the protocols, as described in Fabian, M. A. et al. A small molecule-kinase interaction map for clinical kinase inhibitors. Nat. Biotechnol.
T7 kinase-tagged phage strains were grown in parallel in 24- or 96-well blocks in an E. coli host derived from the BL21 strain. E. coli were grown to log phase and infected with T7 phage from a frozen stock (multiplicity of infection ˜0.1) and incubated with shaking at 32° C. until lysis (˜90 min). The lysates were centrifuged (6,000 g) and filtered ([…]) to remove cell debris. […] The liganded beads were blocked with excess biotin and washed with blocking buffer (SeaBlock (Pierce), 1% BSA, 0.05% Tween 20, 1 mM DTT) to remove unbound ligand and to reduce nonspecific phage binding. […] Test compounds were prepared as 1,000× stocks in DMSO and rapidly diluted into the aqueous environment (0.1% DMSO final). DMSO (0.1%) was added to control assays lacking a test compound. All reactions were carried out in polystyrene 96-well plates that had been pretreated with blocking buffer in a final volume of 0.1 ml. […] The phage titer in the eluates was measured by standard plaque assays or by quantitative PCR.
The compounds were tested at a single concentration of 10 μM.
[formula] Binding Constant Measurements
Kd(probe) is the binding constant for the interaction between the kinase and the immobilized ligand, [Probe] is the concentration of the immobilized ligand and [test]1/2 is the concentration of the free test compound at the midpoint of the transition. If [Probe] is below Kd(probe) the expression simplifies to Kd(test)=[test]1/2. Under these conditions the binding constants measured for the interaction between kinases and test compounds (Kd(test)) are therefore independent of the affinity of the immobilized ligand for the kinase (Kd(probe)). T7 phage grow to a titer of 10^8-10^10 plaque forming units (PFU)/ml, and the concentration of phage-tagged kinase in the binding reaction is therefore in the low picomolar range. […] Clustering and visualization was performed with Cluster 3.0 (M. Eisen, Stanford University) and Mapletree software (M. Eisen, Stanford University; L. Simirenko, Lawrence Berkeley National Lab).

| Compound | Kd [nM] | remaining binding at 10 µM [%] | % Ctrl (10 µM) [%] |
| --- | --- | --- | --- |
| COc1ccc(-c2cnc3c(N4CCOCC4)snc3c2)cc1 [Example 63, 4-(6-(4-methoxyphenyl)isothiazolo[4,3-b]pyridin-3-yl)morpholine] | 140 | 0.6 |  |
| COC(=O)c1ccc(-c2cnc3c(N4CCOCC4)snc3c2)cc1OC [Example 46, Methyl 2-methoxy-4-(3-morpholinoisothiazolo[4,3-b]pyridin-6-yl)benzoate] | 19 | 2.8 |  |
| COc1cc(Br)c(-c2cnc3c(N4CCOCC4)snc3c2)cc1OC [Example 60, 4-(6-(2-bromo-4,5-dimethoxyphenyl)isothiazolo[4,3-b]pyridin-3-yl)morpholine] | 180 | 1.1 |  |
| COc1ccc(-c2cnc3c(NCC(O)CO)snc3c2)cc1OC (stereo not shown) [Example 71, 3-(6-(3,4-dimethoxyphenyl)isothiazolo[4,3-b]pyridin-3-ylamino)propane-1,2-diol] | 330 | 2.6 |  |
| COc1ccc(-c2cnc3c(OC)snc3c2)cc1OC [Example 36, 3-methoxy-6-(3,4-dimethoxyphenyl)-isothiazolo[4,3-b]pyridine] |  | 19 |  |
| COc1ccc(-c2cnc3c(N4CCCC(O)C4)snc3c2)cc1OC (stereo not shown) [Example 68, 1-(6-(3,4-dimethoxyphenyl)isothiazolo[4,3-b]pyridin-3-yl)piperidin-3-ol] | 69 | 0.05 |  |
| 6-bromo-6-ethanolamino-isothiazolo[4,3-b]pyridine [Example 12] |  |  | 62 |
| COc1snc2cc(-c3cccnc3)cnc12 [Example 35, 3-methoxy-6-(3-pyridyl)-isothiazolo[4,3-b]pyridine] |  | 93 |  |
| COc1snc2cc(-c3ccsc3)cnc12 [Example 37, 3-methoxy-6-(3-thienyl)-isothiazolo[4,3-b]pyridine] |  | 22 |  |
| COc1ccc(-c2cnc3c(N4CCOCC4)snc3c2)cc1OC(C)=O [Example 62, 2-methoxy-5-(3-morpholinoisothiazolo[4,3-b]pyridin-6-yl)phenyl acetate] | 82 | 0 |  |
| COc1cccc(-c2cnc3c(N4CCOCC4)snc3c2)c1 [Example 61, 4-(6-(3-methoxyphenyl)isothiazolo[4,3-b]pyridin-3-yl)morpholine] | 180 | 0.05 |  |
| COc1ccc(-c2cnc3c(N4CCC(=O)CC4)snc3c2)cc1OC [Example 65, 1-(6-(3,4-dimethoxyphenyl)isothiazolo[4,3-b]pyridin-3-yl)piperidin-4-one] | 31 | 0 |  |
| CNC(=O)c1ccc(-c2cnc3c(N4CCOCC4)snc3c2)cc1 [Example 54, N-Methyl-4-(3-morpholinoisothiazolo[4,3-b]pyridin-6-yl)benzamide] | 88 | 0.05 |  |
| COc1snc2cc(Br)cnc12 [Example 14, 3-methoxy-6-bromo-isothiazolo[4,3-b]pyridine] |  | 100 |  |
| Brc1cnc2c(N3CCOCC3)snc2c1 [Example 11, 6-bromo-3-morpholino-isothiazolo[4,3-b]pyridine] |  | 50 |  |
| COC(=O)c1ccc(-c2cnc3c(N4CCOCC4)snc3c2)cc1 [Example 53, Methyl 4-(3-morpholinoisothiazolo[4,3-b]pyridin-6-yl)benzoate] |  | 9 |  |
| Nc1snc2cc(Br)cnc12 [Example 3, 3-amino-6-bromo-Isothiazolo[4,3-b]pyridine] |  | 97 |  |
| COc1ccc(-c2cnc3c(NCCCCCO)snc3c2)cc1OC [Example 67, 5-(6-(3,4-dimethoxyphenyl)isothiazolo[4,3-b]pyridin-3-ylamino)pentan-1-ol] | 210 | 0.85 |  |
| COc1snc2cc(-c3ccccc3)cnc12 [Example 33, 3-methoxy-6-phenyl-isothiazolo[4,3-b]pyridine] |  | 9.4 |  |

Second part, led by results:

| Kd [nM] | remaining binding at 10 µM [%] | Compound | % Ctrl (10 µM) [%] |
| --- | --- | --- | --- |
|  | 40 | CCOC(=O)N1CCC(Nc2snc3cc(-c4ccc(OC)c(OC)c4)cnc23)CC1 [Example 72, ethyl 4-(6-(3,4-dimethoxyphenyl)isothiazolo[4,3-b]pyridin-3-ylamino)piperidine-1-carboxylate] |  |
| 260 | 0.15 | COc1ccc(-c2cnc3c(-c4ccccc4)snc3c2)cc1OC [Example 82, 6-(3,4-dimethoxyphenyl)-3-phenylisothiazolo[4,3-b]pyridine] |  |
|  | 92 | COc1cc(Br)c(-c2cnc3c(N4CCC(C)CC4)snc3c2)cc1OC [Example 86, 6-(2-bromo-4,5-dimethoxyphenyl)-3-(4-methylpiperidin-1-yl)isothiazolo[4,3-b]pyridine] |  |
|  | 12 | COc1ccc(-c2cnc3c(N4CCC5(CC4)OCCO5)snc3c2)cc1OC [Example 81, 8-(6-(3,4-dimethoxyphenyl)isothiazolo[4,3-b]pyridin-3-yl)-1,4-dioxa-8-azaspiro[4.5]decane] |  |
| 52 | 0.05 | COc1ccc(-c2cnc3c(-c4ccncc4)snc3c2)cc1OC [Example 83, 6-(3,4-dimethoxyphenyl)-3-(pyridin-4-yl)isothiazolo[4,3-b]pyridine] |  |
| 140 | 0 | COc1ccc(-c2cnc3c(-c4ccsc4)snc3c2)cc1OC [Example 84, 6-(3,4-dimethoxyphenyl)-3-(thiophen-3-yl)isothiazolo[4,3-b]pyridine] |  |
| 210 | 0.05 | CCN(CC)c1snc2cc(-c3ccc(OC)c(OC)c3)cnc12 [Example 79, 6-(3,4-dimethoxyphenyl)-N,N-diethylisothiazolo[4,3-b]pyridin-3-amine] |  |
| 330 | 4.3 | CCOc1snc2cc(-c3cc(OC)c(OC)cc3Br)cnc12 [Example 87, 6-(2-bromo-4,5-dimethoxyphenyl)-3-ethoxyisothiazolo[4,3-b]pyridine] |  |
|  | 31 | COc1ccc(-c2cnc3csnc3c2)cc1OC [Example 85, 6-(3,4-dimethoxyphenyl)isothiazolo[4,3-b]pyridine] |  |
